Source: PubChem BioAssay (NCI)
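Dose response: 5 concentrations. Exposure: 48 h. Format: 96-well plates. Endpoint: linear interpolation; highest concentration if not reached. TGI is the concentration that stops growth completely.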

Assays:
Assay in all cases: NCI-60 cell line screen, 48 h
ACHN renal = test system: ACHN renal
HCC-2998 colon = test system: HCC-2998 colon
SR leukemia = test system: SR leukemia
SK-MEL-5 melanoma = test system: SK-MEL-5 melanoma
UACC-62 melanoma = test system: UACC-62 melanoma
T-47D breast = test system: T-47D breast
M14 melanoma = test system: M14 melanoma
CAKI-1 renal = test system: CAKI-1 renal
SW-620 colon = test system: SW-620 colon
OVCAR-8 ovarian = test system: OVCAR-8 ovarian
SK-MEL-2 melanoma = test system: SK-MEL-2 melanoma
U251 CNS = test system: U251 CNS
786-0 renal = test system: 786-0 renal
MDA-N = test system: MDA-N
DU-145 prostate = test system: DU-145 prostate
LOX IMVI melanoma = test system: LOX IMVI melanoma
K-562 leukemia = test system: K-562 leukemia
IGROV1 ovarian = test system: IGROV1 ovarian
SN12C renal = test system: SN12C renal
COLO 205 colon = test system: COLO 205 colon
HOP-92 NSCLC = test system: HOP-92 NSCLC
KM12 colon = test system: KM12 colon
MOLT-4 leukemia = test system: MOLT-4 leukemia
HCT-15 colon = test system: HCT-15 colon
SNB-19 CNS = test system: SNB-19 CNS
EKVX NSCLC = test system: EKVX NSCLC
UO-31 renal = test system: UO-31 renal
OVCAR-3 ovarian = test system: OVCAR-3 ovarian
PC-3 prostate = test system: PC-3 prostate
A549 NSCLC = test system: A549 NSCLC
SK-MEL-28 melanoma = test system: SK-MEL-28 melanoma
TK-10 renal = test system: TK-10 renal
OVCAR-4 ovarian = test system: OVCAR-4 ovarian
MDA-MB-435 = test system: MDA-MB-435
HT29 colon = test system: HT29 colon
RPMI-8226 leukemia = test system: RPMI-8226 leukemia
BT-549 breast = test system: BT-549 breast
OVCAR-5 ovarian = test system: OVCAR-5 ovarian
MDA-MB-231 breast = test system: MDA-MB-231 breast
A498 renal = test system: A498 renal
UACC-257 melanoma = test system: UACC-257 melanoma
SF-295 CNS = test system: SF-295 CNS
NCI-H522 lung = test system: NCI-H522 lung
SF-268 CNS = test system: SF-268 CNS
NCI-H226 lung = test system: NCI-H226 lung
SK-OV-3 ovarian = test system: SK-OV-3 ovarian
RXF 393 renal = test system: RXF 393 renal
NCI-H23 lung = test system: NCI-H23 lung
NCI/ADR-RES ovarian = test system: NCI/ADR-RES ovarian
HL-60(TB) leukemia = test system: HL-60(TB) leukemia
MCF7 breast = test system: MCF7 breast
HOP-62 NSCLC = test system: HOP-62 NSCLC
MALME-3M melanoma = test system: MALME-3M melanoma
HCT-116 colon = test system: HCT-116 colon

Measured: TGI

CN(C(=O)Cc1ccc(Cl)c(Cl)c1)[C@@H]1CCCC[C@H]1[N+]1(C)CC=CC1
> 100 µM: ACHN renal | HCC-2998 colon | SR leukemia | SK-MEL-5 melanoma | UACC-62 melanoma | T-47D breast | M14 melanoma | CAKI-1 renal | SW-620 colon | OVCAR-8 ovarian | SK-MEL-2 melanoma | U251 CNS | 786-0 renal | MDA-N | DU-145 prostate | LOX IMVI melanoma | K-562 leukemia | IGROV1 ovarian | SN12C renal | COLO 205 colon | HOP-92 NSCLC | KM12 colon | MOLT-4 leukemia | HCT-15 colon | SNB-19 CNS | EKVX NSCLC | UO-31 renal | OVCAR-3 ovarian | PC-3 prostate | A549 NSCLC | SK-MEL-28 melanoma | TK-10 renal | OVCAR-4 ovarian | MDA-MB-435 | HT29 colon | RPMI-8226 leukemia | BT-549 breast | OVCAR-5 ovarian | MDA-MB-231 breast | A498 renal | UACC-257 melanoma | SF-295 CNS | NCI-H522 lung | SF-268 CNS | NCI-H226 lung | SK-OV-3 ovarian | RXF 393 renal | NCI-H23 lung | NCI/ADR-RES ovarian | HL-60(TB) leukemia | MCF7 breast | HOP-62 NSCLC | MALME-3M melanoma | HCT-116 colon
